Several values for one entry are separate records, joined by “and”; a condition that tells them apart may be missing. Equal values may be shown once. Read-outs that look alike come from different tables or passages of the source.
How the values were obtained:
CB2 = target: CB2; set-up: method as in S-inhibitor; conditions: ref S-inhibitor; cited from earlier work
[1] = test system: Toxoplasma gondii RH-2F tachyzoites; test: microbe, parasite or virus in culture; conditions: 72 h
hSGLT2 = conditions: read-out: EC50, hSGLT2; ref S-inhibitor; cited from earlier work
Tie2 = test system: Tie2; set-up: method as in S-inhibitor; conditions: ref S-inhibitor; cited from earlier work
[2] = test system: Toxoplasma gondii RH-2F tachyzoites; conditions: preliminary screen, mean
[3] = test system: cleavage of Tyr from Met-enkephalin; set-up: method as in S-inhibitor; conditions: ref S-inhibitor; read-out: IC50, inhibition of cleavage of Tyr from Met-enkephalin; cited from earlier work
MEK1 = test system: MEK1; set-up: method as in library vendor description; conditions: ref library vendor description; cited from earlier work
Aurora B = test system: Aurora B; set-up: method as in S-inhibitor; conditions: ref S-inhibitor; cited from earlier work
[4] = target: T. brucei Aurora kinase-1 (TbAUK1); set-up: method as in S-inhibitor; conditions: ref S-inhibitor; cited from earlier work
CDK1/cyclin B = test system: CDK1/cyclin B; set-up: method as in S-inhibitor; conditions: ref S-inhibitor; cited from earlier work
CDK3/Cyclin E = conditions: read-out: IC50, CDK3/Cyclin E; ref S-inhibitor; cited from earlier work
CDK4/cyclin D1 = conditions: read-out: IC50, CDK4/Cyclin D1; ref S-inhibitor; cited from earlier work
CDK5/p35 = conditions: read-out: IC50, CDK5/p35; ref S-inhibitor; cited from earlier work
CDK6/Cyclin D3 = conditions: read-out: IC50, CDK6/Cyclin D3; ref S-inhibitor; cited from earlier work
Abl = test system: Abl; set-up: method as in library vendor description; conditions: ref library vendor description; cited from earlier work
[5] = test system: LPS-induced TNF-α release; set-up: method as in S-inhibitor; conditions: ref S-inhibitor; cited from earlier work
phosphodiesterase = target: phosphodiesterase; set-up: method as in S-inhibitor; conditions: ref S-inhibitor; cited from earlier work
reverse transcriptase = conditions: read-out: IC50, reverse transcriptase; ref S-inhibitor; cited from earlier work
γ-secretase = target: γ-secretase; set-up: method as in S-inhibitor; conditions: ref S-inhibitor, cited from earlier work
Notch signaling = test system: Notch signaling; set-up: method as in S-inhibitor; conditions: ref S-inhibitor; cited from earlier work
[6] = test system: HCV NS3-4A serine protease; set-up: method as in S-inhibitor; conditions: ref S-inhibitor; cited from earlier work
v-Abl = test system: v-Abl; set-up: method as in library vendor description; conditions: ref library vendor description; cited from earlier work
Akt1 = test system: Akt1; set-up: method as in S-inhibitor; conditions: ref S-inhibitor; cited from earlier work
Akt2 = test system: Akt2; set-up: method as in S-inhibitor; conditions: ref S-inhibitor; cited from earlier work
Akt3 = test system: Akt3; set-up: method as in S-inhibitor; conditions: ref S-inhibitor; cited from earlier work
S6K = test system: S6K; set-up: method as in S-inhibitor; conditions: ref S-inhibitor; cited from earlier work
some cell lines = test system: some cell lines; set-up: method as in S-inhibitor; conditions: ref S-inhibitor; cited from earlier work
in vitro = conditions: human; for viability at 72 h: Host viability (%) mean
LAP = test system: LAP; set-up: method as in S-inhibitor; conditions: ref S-inhibitor; cited from earlier work
PuSA = test system: PuSA; set-up: method as in S-inhibitor; conditions: ref S-inhibitor; cited from earlier work
Aminopeptidase N = target: Aminopeptidase N; set-up: method as in S-inhibitor; conditions: ref S-inhibitor; cited from earlier work
ATM = test system: ATM; set-up: method as in S-inhibitor; conditions: ref S-inhibitor; cited from earlier work
MEK5 = test system: MEK5; set-up: method as in S-inhibitor; conditions: ref S-inhibitor; cited from earlier work
S6K1 = test system: S6K1; set-up: method as in S-inhibitor; conditions: ref S-inhibitor; cited from earlier work
MSK1 = test system: MSK1; set-up: method as in S-inhibitor; conditions: ref S-inhibitor; cited from earlier work
PKA = test system: PKA; set-up: method as in S-inhibitor; conditions: ref S-inhibitor; cited from earlier work
PKBα = test system: PKBα; set-up: method as in S-inhibitor; conditions: ref S-inhibitor; cited from earlier work
MAPKAP-K1b = test system: MAPKAP-K1b; set-up: method as in S-inhibitor; conditions: ref S-inhibitor; cited from earlier work
c-Met = test system: c-Met; set-up: method as in S-inhibitor; conditions: ref S-inhibitor; cited from earlier work
Ron = test system: Ron; set-up: method as in S-inhibitor; conditions: ref S-inhibitor; cited from earlier work
Tyro3 = test system: Tyro3; set-up: method as in S-inhibitor; conditions: ref S-inhibitor; cited from earlier work
PDPK1 = target: PDPK1; set-up: method as in S-inhibitor; conditions: ref S-inhibitor; cited from earlier work
VEGFR2 = test system: VEGFR2; set-up: method as in S-inhibitor; conditions: ref S-inhibitor; cited from earlier work
PDGFRα = test system: PDGFRα; set-up: method as in S-inhibitor; conditions: ref S-inhibitor; cited from earlier work
PDGFRβ = test system: PDGFRβ; set-up: method as in S-inhibitor; conditions: ref S-inhibitor; cited from earlier work
VEGFR1 = test system: VEGFR1; set-up: method as in S-inhibitor; conditions: ref S-inhibitor; cited from earlier work
CFTR = test system: CFTR; set-up: method as in S-inhibitor; conditions: ref S-inhibitor; cited from earlier work
BACE1 = test system: BACE1; set-up: method as in S-inhibitor; conditions: two values given; ref S-inhibitor; cited from earlier work
Aβ secretion = test system: Aβ secretion; set-up: method as in S-inhibitor; conditions: ref S-inhibitor; read-out: EC50, decrease of Aβ secretion; cited from earlier work
CDK4 = test system: CDK4; set-up: method as in S-inhibitor; conditions: ref S-inhibitor; cited from earlier work
CDK6 = test system: CDK6; set-up: method as in S-inhibitor; conditions: ref S-inhibitor; cited from earlier work
HSP90β = test system: HSP90β; set-up: method as in S-inhibitor; conditions: ref S-inhibitor; cited from earlier work
GSK-3β = test system: GSK-3β; set-up: method as in S-inhibitor; conditions: ref S-inhibitor; cited from earlier work
[7] = read-out: Parasite inhibition (%) mean, preliminary screen, mean
[8] = read-out: Parasite inhibition (%) mean

## CN1CCCCC1Cn1cc(C(=O)c2cc([N+](=O)[O-])ccc2I)c2ccccc21 (stereo not shown) [AM-1241]
CB2
  Ki: 3.4 nM
[1]; [7]
  inhibition of growth at 5 µM: -8.8%

## CCOc1ccc(Cc2cc([C@@H]3O[C@H](CO)[C@@H](O)[C@H](O)[C@H]3O)ccc2Cl)cc1 [Dapagliflozin]
hSGLT2
  EC50: 1.1 nM
[1]; [8]
  inhibition of growth at 5 µM: 1.9%

## COc1ccc2cc(-c3[nH]c(-c4ccc([S+](C)[O-])cc4)nc3-c3ccncc3)ccc2c1 (stereo not shown) [Tie2 kinase inhibitor]
Tie2
  IC50: 250 nM
[1]; [7]
  inhibition of growth at 5 µM: 13%

## Bacitracin zinc
[2]
  Parasite inhibition (%) mean: 9.0%
[3]
  IC50: 10000 nM

## Cn1cnc2c(F)c(Nc3ccc(Br)cc3Cl)c(C(=O)NOCCO)cc21 [AZD6244 (Selumetinib)]
MEK1
  IC50: 14 nM
[1]; [7]
  inhibition of growth at 5 µM: 0.6%

## CCS(=O)(=O)Nc1ccc2c(c1)/C(=C(/Nc1ccc(CN3CCCCC3)cc1)c1ccccc1)C(=O)N2 [Hesperadin]
Aurora B
  IC50: 250 nM
[4]
  IC50: 40 nM
[1]; [7]
  inhibition of growth at 5 µM: 66.8%

## O=C(NC1CCNCC1)c1[nH]ncc1NC(=O)c1c(Cl)cccc1Cl [AT7519]
CDK1/cyclin B
  IC50: […]
CDK3/Cyclin E
  IC50: 360 nM
CDK4/cyclin D1
  IC50: […]
CDK5/p35
  IC50: 13 nM
CDK6/Cyclin D3
  IC50: 170 nM
[1]; [7]
  inhibition of growth at 5 µM: -11.7%

## COc1cc(Nc2c(C#N)cnc3cc(OCCCN4CCN(C)CC4)c(OC)cc23)c(Cl)cc1Cl [Bosutinib (SKI-606)]
Abl
  IC50: […]
[1]; [7]
  inhibition of growth at 5 µM: 22.4%

## Nc1cccc2c1C(=O)N(C1CCC(=O)NC1=O)C2=O (stereo not shown) [Pomalidomide]
[5]
  IC50: 13 nM
[1]; [7]
  inhibition of growth at 5 µM: 0.8%

## Cn1c(=O)c2[nH]cnc2n(C)c1=O.Cn1c(=O)c2[nH]cnc2n(C)c1=O.NCCN [Aminophylline (Truphylline)]
[2]
  Parasite inhibition (%) mean: 0.8%
phosphodiesterase
  IC50: 120000 nM

## Nc1nc(=O)n([C@@H]2CS[C@H](CO)O2)cc1F [Emtricitabine (Emtriva)]
Reverse transcriptase
  IC50: 27700 nM
[1]; [8]
  inhibition of growth at 5 µM: 0.4%

## CC(C)[C@H](O)C(=O)N[C@@H](C)C(=O)N[C@H]1C(=O)N(C)CCc2ccccc21 [Semagacestat (LY450139)]
γ-secretase; Aβ38, read-out: IC50, γ-secretase, Aβ38
  IC50: 12 nM
γ-secretase; Aβ40, read-out: IC50, γ-secretase, Aβ40
  IC50: 12.1 nM
γ-secretase; Aβ42, read-out: IC50, γ-secretase, Aβ42
  IC50: 10.9 nM
Notch signaling
  IC50: 14.1 nM
[1]; [7]
  inhibition of growth at 5 µM: -9.8%

## CCC[C@H](NC(=O)[C@H]1[C@H]2CCC[C@H]2CN1C(=O)[C@@H](NC(=O)[C@@H](NC(=O)c1cnccn1)C1CCCCC1)C(C)(C)C)C(=O)C(=O)NC1CC1 [Telaprevir (VX-950)]
[6]
  IC50: 350 nM
[1]; [7]
  inhibition of growth at 5 µM: 4.4%

## CN1CCN(CCOc2cc(OC3CCOCC3)c3c(Nc4c(Cl)ccc5c4OCO5)ncnc3c2)CC1 [Saracatinib (AZD0530)]
v-Abl
  IC50: 30 nM
[1]; [7]
  inhibition of growth at 5 µM: 32.6%

## Clc1ccc(C2(c3ccc(-c4cn[nH]c4)cc3)CCNCC2)cc1 [AT7867]
Akt1
  IC50: 32 nM
Akt2
  IC50: 17 nM
Akt3
  IC50: 47 nM
S6K
  IC50: 85 nM
[1]; [7]
  inhibition of growth at 5 µM: 46.4%

## C#CCC(Cc1cnc2nc(N)nc(N)c2n1)c1ccc(C(=O)N[C@@H](CCC(=O)O)C(=O)O)cc1 (stereo partly shown) [Pralatrexate (Folotyn)]
Some cell lines
  IC50: < 300 nM
[1]; [7]
  inhibition of growth at 5 µM: 20.4%

## CC(C)C[C@@H](C(=O)N[C@H](C(=O)OC1CCCC1)c1ccccc1)[C@H](O)C(=O)NO [Tosedostat (CHR2797)]
In vitro
  viability at 72 h: 88.8%
LAP
  IC50: 100 nM
PuSA
  IC50: 150 nM
Aminopeptidase N
  IC50: 220 nM
[1]; [7]
  inhibition of growth at 5 µM: 85.6%

## C[C@@H]1CN(CC(=O)Nc2ccc3c(c2)Cc2cccc(-c4cc(=O)cc(N5CCOCC5)o4)c2S3)C[C@H](C)O1 [KU-60019]
ATM
  IC50: 6.3 nM
[1]; [7]
  inhibition of growth at 5 µM: 2%

## BIX 02188
[2]
  Parasite inhibition (%) mean: 13.7%
MEK5
  IC50: 4.3 nM

## O=S(=O)(NCCNC/C=C/c1ccc(Br)cc1)c1cccc2cnccc12 [H 89 2HCl, reference compound]
In vitro; Host viability (%) Mean ± SD
  viability at 72 h, 5 µM: 89.4 ± 4.6%
In vitro
  viability at 72 h: 89.4%
S6K1
  IC50: 80 nM
MSK1
  IC50: 120 nM
PKA
  IC50: 135 nM
PKBα
  IC50: […]
MAPKAP-K1b
  IC50: 2800 nM
[1]; read-out: Parasite inhibition (%) Mean ± SD
  inhibition at 5 µM: 83.5 ± 1.8%

## CCOc1ccn(-c2ccc(F)cc2)c(=O)c1C(=O)Nc1ccc(Oc2ccnc(N)c2Cl)c(F)c1 [BMS 777607]
In vitro
  viability at 72 h: 72%
c-Met
  IC50: 3.9 nM
Ron
  IC50: 1.8 nM
Tyro3
  IC50: 4.3 nM
[1]; [7]
  inhibition of growth at 5 µM: 80.6%

## CCCCCCCCCCCCc1ccc(S(=O)(=O)Nc2nncs2)cc1 [PHT-427]
PDPK1
  Ki: 5200 nM
[1]; [7]
  inhibition of growth at 5 µM: 35.7%

## CCCNC(=O)Nc1ccc(Oc2ncnc3cc(OC)c(OC)cc23)cc1Cl [KRN 633]
In vitro
  viability at 72 h: 70.6%
VEGFR2
  IC50: 160 nM
PDGFRα
  IC50: 965 nM
PDGFRβ
  IC50: 9850 nM
VEGFR1
  IC50: 170 nM
[1]; [7]
  inhibition of growth at 5 µM: 73.8%

## Cc1ccc(NC(=O)C2(c3ccc4c(c3)OC(F)(F)O4)CC2)nc1-c1cccc(C(=O)O)c1 [VX-809]
CFTR
  EC50: 100 nM
[1]; [7]
  inhibition of growth at 5 µM: 9.4%

## C[C@@]1(c2cc(-c3cncnc3)c(F)cc2F)CCSC(N)=N1 [LY2811376]
BACE1
  IC50: […]
Aβ secretion
  EC50: ~300 nM
[1]; [7]
  inhibition of growth at 5 µM: -19.7%

## CC(=O)c1c(C)c2cnc(Nc3ccc(N4CCNCC4)cn3)nc2n(C2CCCC2)c1=O.O=S(=O)(O)CCO [PD 0332991 (Palbociclib) Isethionate]
[2]
  Parasite inhibition (%) mean: 2.6%
CDK4
  IC50: […]
CDK6
  IC50: 16 nM

## CCNC(=O)c1cc2c(-c3cc(OCCN4CCCC4)c(Cl)cc3Cl)nc(N)nc2s1 [NVP-BEP800]
HSP90β
  IC50: 58 nM
[1]; [8]
  inhibition of growth at 5 µM: 0.7%

## Nc1cccc(-c2cc3c(Oc4cccc(O)c4)ncnc3[nH]2)c1 [TWS119]
GSK-3β
  IC50: 30 nM
[1]; [7]
  inhibition of growth at 5 µM: 40.8%

Reference: PMC7216583 (Parasites & Vectors, 2020)
